Test results published in patent US20020137929A1, “1 - (3-heterocyclylphenyl) isothiourea, -isourea, -guanidine and -amidine herbicidal agents” (Intellectual Property Department, BASF Aktiengesellschaft, priority 1998, published 2002).

Experiments:
[1] = tested on: AMBEL (Ragweed, Common); test: Postemergence herbicidal evaluation; type: in vivo, Ambrosia artemisifolia; conditions: postemergence
Outline: (§1)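 Compound is applied as a foliar spray to seedlings about two weeks old, formulated in equal parts acetone and water with 0.5% TWEEN 20 and delivered at 40 psi to give about 0.0156–0.500 kg per hectare. Injury is rated visually 0–9 after four to five weeks.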

[2] = tested on: CASOB (Sicklepod); test: Postemergence herbicidal evaluation; type: in vivo, Cassia obtusifolia; conditions: postemergence
Outline: as §1

[3] = tested on: CHEAL (Lambsquarters, Common); test: Postemergence herbicidal evaluation; type: in vivo, Chenopodium album; conditions: postemergence
Outline: as §1

[4] = tested on: IPOHE (Morningglory, Ivyleaf); test: Postemergence herbicidal evaluation; type: in vivo, Ipomoea hederacea; conditions: postemergence
Outline: as §1

[5] = tested on: ECHCG (Barnyardgrass); test: Postemergence herbicidal evaluation; type: in vivo, Echinochloa crus-galli; conditions: postemergence
Outline: as §1

[6] = tested on: GLXMAW (Soybean, Williams); test: Postemergence herbicidal evaluation; type: in vivo, Glycine max, (L.) Merr. cv Williams; conditions: postemergence
Outline: as §1

[7] = tested on: TRZAWR (Wheat, Winter, cv Riband); test: Postemergence herbicidal evaluation; type: in vivo, Triticum aestivum; conditions: postemergence
Outline: as §1

[8] = tested on: ABUTH (Velvetleaf); test: Preemergence herbicidal evaluation; type: in vivo, Abutilon theophrasti; conditions: rated 4-5 weeks after treatment, rating scale 0-9
Outline: (§2)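 Each species is sown separately in potting soil over roughly an inch of soil before any emergence. The soil surface then receives an aqueous acetone spray delivering about 0.0156 to 0.500 kg/ha of compound. After four to five weeks, injury is scored from 0 to 9 relative to a control.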

[9] = tested on: AMBEL (Ragweed, Common); test: Preemergence herbicidal evaluation; type: in vivo, Ambrosia artemisifolia; conditions: rated 4-5 weeks after treatment, rating scale 0-9
Outline: as §2

[10] = tested on: CASOB (Sicklepod); test: Preemergence herbicidal evaluation; type: in vivo, Cassia obtusifolia; conditions: rated 4-5 weeks after treatment, rating scale 0-9
Outline: as §2

[11] = tested on: CHEAL (Lambsquarters, Common); test: Preemergence herbicidal evaluation; type: in vivo, Chenopodium album; conditions: rated 4-5 weeks after treatment, rating scale 0-9
Outline: as §2

[12] = tested on: IPOHE (Morningglory, Ivyleaf); test: Preemergence herbicidal evaluation; type: in vivo, Ipomoea hederacea; conditions: rated 4-5 weeks after treatment, rating scale 0-9
Outline: as §2

[13] = tested on: GLXMAW (Soybean, Williams); test: Preemergence herbicidal evaluation; type: in vivo, Glycine max, (L.) Merr. cv Williams; conditions: rated 4-5 weeks after treatment, rating scale 0-9
Outline: as §2

[14] = tested on: ORYSAT (Rice, Tebonnet); test: Preemergence herbicidal evaluation; type: in vivo, Oryza sativa, (L.) Tebonnet; conditions: rated 4-5 weeks after treatment, rating scale 0-9
Outline: as §2

[15] = tested on: MOOVA (Monochoria); test: Preemergence weed control under flooded paddy conditions; type: in vivo, Monochoria vaginalis; conditions: rated 3-4 weeks after treatment
Outline: (§3)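 Herbicidal effect is scored visually on a 0-9 scale against an untreated control, three to four weeks after compounds are pipetted into the flood water (1.5 to 3 cm deep) over seeds planted in silt loam at 0.5 cm depth. Rates: about 0.0313 to 0.500 kg/ha.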

[16] = tested on: SAGPY (Arrowhead (Pygmaea)); test: as above; type: in vivo, Sagittaria pygmaea; conditions: rated 3-4 weeks after treatment
Outline: as §3

Structure (SMILES): Cn1c(C(F)(F)F)cc(=O)n(-c2cc(N=C3SCC(=O)N3Cc3cccnc3)c(Cl)cc2F)c1=O [Compound 132, 3-{4-Chloro-2-fluoro-5-{[4-oxo-3-(3-pyridylmethyl)-2-thiazolidinylidene]amino}phenyl}-1-methyl-6-(trifluoromethyl)-2,4 (1H,3H)-pyrimidinedione]
- Herbicidal rating AMBEL ([1]; rate 0.0156 kg/ha): 5.0
- Herbicidal rating AMBEL ([1]; rate 0.0313 kg/ha): 9.0
- Herbicidal rating AMBEL ([1]; rate 0.0625 kg/ha): 9.0
- Herbicidal rating CASOB ([2]; rate 0.0156 kg/ha): 1.0
- Herbicidal rating CASOB ([2]; rate 0.0313 kg/ha): 1.0
- Herbicidal rating CASOB ([2]; rate 0.0625 kg/ha): 6.0
- Herbicidal rating CHEAL ([3]; rate 0.0156 kg/ha): 4.0
- Herbicidal rating CHEAL ([3]; rate 0.0313 kg/ha): 4.0
- Herbicidal rating CHEAL ([3]; rate 0.0625 kg/ha): 9.0
- Herbicidal rating IPOHE ([4]; rate 0.0156 kg/ha): 6.0
- Herbicidal rating IPOHE ([4]; rate 0.0313 kg/ha): 9.0
- Herbicidal rating IPOHE ([4]; rate 0.0625 kg/ha): 9.0
- Herbicidal rating ECHCG ([5]; rate 0.0156 kg/ha): 1.0
- Herbicidal rating ECHCG ([5]; rate 0.0313 kg/ha): 2.0
- Herbicidal rating ECHCG ([5]; rate 0.0625 kg/ha): 2.0
- Herbicidal rating GLXMAW ([6]; rate 0.0156 kg/ha): 5.0
- Herbicidal rating GLXMAW ([6]; rate 0.0313 kg/ha): 5.0
- Herbicidal rating GLXMAW ([6]; rate 0.0625 kg/ha): 6.0
- Herbicidal rating TRZAWR ([7]; rate 0.0156 kg/ha): 3.0
- Herbicidal rating TRZAWR ([7]; rate 0.0313 kg/ha): 3.5
- Herbicidal rating TRZAWR ([7]; rate 0.0625 kg/ha): 4.0
- Preemergence herbicidal rating ABUTH ([8]; rate 0.0625 kg/ha): 9.0
- Preemergence herbicidal rating ABUTH ([8]; rate 0.1250 kg/ha): 9.0
- Preemergence herbicidal rating ABUTH ([8]; rate 0.2500 kg/ha): 9.0
- Preemergence herbicidal rating AMBEL ([9]; rate 0.0625 kg/ha): 0.0
- Preemergence herbicidal rating AMBEL ([9]; rate 0.1250 kg/ha): 4.0
- Preemergence herbicidal rating AMBEL ([9]; rate 0.2500 kg/ha): 7.0
- Preemergence herbicidal rating CASOB ([10]; rate 0.0625 kg/ha): 0.0
- Preemergence herbicidal rating CASOB ([10]; rate 0.2500 kg/ha): 0.0
- Preemergence herbicidal rating CHEAL ([11]; rate 0.0625 kg/ha): 9.0
- Preemergence herbicidal rating CHEAL ([11]; rate 0.1250 kg/ha): 9.0
- Preemergence herbicidal rating CHEAL ([11]; rate 0.2500 kg/ha): 9.0
- Preemergence herbicidal rating IPOHE ([12]; rate 0.0625 kg/ha): 0.0
- Preemergence herbicidal rating IPOHE ([12]; rate 0.1250 kg/ha): 0.0
- Preemergence herbicidal rating IPOHE ([12]; rate 0.2500 kg/ha): 2.0
- Preemergence herbicidal rating GLXMAW ([13]; rate 0.0625 kg/ha): 0.0
- Preemergence herbicidal rating GLXMAW ([13]; rate 0.1250 kg/ha): 0.0
- Preemergence herbicidal rating GLXMAW ([13]; rate 0.2500 kg/ha): 2.0
- Preemergence herbicidal rating ORYSAT ([14]; rate 0.0625 kg/ha): 0.0
- Preemergence herbicidal rating ORYSAT ([14]; rate 0.1250 kg/ha): 0.0
- Preemergence herbicidal rating ORYSAT ([14]; rate 0.2500 kg/ha): 1.0
- herbicidal effect rating, MOOVA ([15]; 0.0313 kg/ha): 6.0
- herbicidal effect rating, MOOVA ([15]; 0.0625 kg/ha): 9.0
- herbicidal effect rating, MOOVA ([15]; 0.1250 kg/ha): 9.0
- herbicidal effect rating, MOOVA ([15]; 0.2500 kg/ha): 9.0
- herbicidal effect rating, SAGPY ([16]; 0.0313 kg/ha): 0.0
- herbicidal effect rating, SAGPY ([16]; 0.0625 kg/ha): 0.0
- herbicidal effect rating, SAGPY ([16]; 0.1250 kg/ha): 0.0
- herbicidal effect rating, SAGPY ([16]; 0.2500 kg/ha): 0.0

Structure (SMILES): Cn1c(C(F)(F)F)cc(=O)n(-c2cc(N=C3SCC(=O)N3Cc3ccncc3)c(Cl)cc2F)c1=O [Compound 133, 3-{4-Chloro-2-fluoro-5-{[4-oxo-3-(4-pyridylmethyl)-2-thiazolidinylidene]amino}phenyl}-1-methyl-6-(trifluoromethyl)-2,4(1H,3H)-pyrimidinedione]
- Herbicidal rating AMBEL ([1]; rate 0.0156 kg/ha): 9.0
- Herbicidal rating AMBEL ([1]; rate 0.0313 kg/ha): 6.0
- Herbicidal rating AMBEL ([1]; rate 0.0625 kg/ha): 9.0
- Herbicidal rating CASOB ([2]; rate 0.0156 kg/ha): 0.0
- Herbicidal rating CASOB ([2]; rate 0.0313 kg/ha): 1.0
- Herbicidal rating CASOB ([2]; rate 0.0625 kg/ha): 3.0
- Herbicidal rating CHEAL ([3]; rate 0.0156 kg/ha): 9.0
- Herbicidal rating CHEAL ([3]; rate 0.0313 kg/ha): 6.0
- Herbicidal rating CHEAL ([3]; rate 0.0625 kg/ha): 9.0
- Herbicidal rating IPOHE ([4]; rate 0.0156 kg/ha): 9.0
- Herbicidal rating IPOHE ([4]; rate 0.0313 kg/ha): 9.0
- Herbicidal rating IPOHE ([4]; rate 0.0625 kg/ha): 9.0
- Herbicidal rating ECHCG ([5]; rate 0.0156 kg/ha): 1.0
- Herbicidal rating ECHCG ([5]; rate 0.0313 kg/ha): 1.0
- Herbicidal rating ECHCG ([5]; rate 0.0625 kg/ha): 1.0
- Herbicidal rating GLXMAW ([6]; rate 0.0156 kg/ha): 5.0
- Herbicidal rating GLXMAW ([6]; rate 0.0313 kg/ha): 5.0
- Herbicidal rating GLXMAW ([6]; rate 0.0625 kg/ha): 5.0
- Herbicidal rating TRZAWR ([7]; rate 0.0156 kg/ha): 2.5
- Herbicidal rating TRZAWR ([7]; rate 0.0313 kg/ha): 3.0
- Herbicidal rating TRZAWR ([7]; rate 0.0625 kg/ha): 3.5
- Preemergence herbicidal rating ABUTH ([8]; rate 0.0313 kg/ha): 0.0
- Preemergence herbicidal rating ABUTH ([8]; rate 0.0625 kg/ha): 0.0
- Preemergence herbicidal rating ABUTH ([8]; rate 0.1250 kg/ha): 1.0
- Preemergence herbicidal rating ABUTH ([8]; rate 0.2500 kg/ha): 5.0
- Preemergence herbicidal rating AMBEL ([9]; rate 0.0313 kg/ha): 0.0
- Preemergence herbicidal rating AMBEL ([9]; rate 0.0625 kg/ha): 0.0
- Preemergence herbicidal rating AMBEL ([9]; rate 0.1250 kg/ha): 0.0
- Preemergence herbicidal rating AMBEL ([9]; rate 0.2500 kg/ha): 1.0
- Preemergence herbicidal rating CASOB ([10]; rate 0.0313 kg/ha): 0.0
- Preemergence herbicidal rating CASOB ([10]; rate 0.0625 kg/ha): 0.0
- Preemergence herbicidal rating CASOB ([10]; rate 0.1250 kg/ha): 0.0
- Preemergence herbicidal rating CASOB ([10]; rate 0.2500 kg/ha): 9.0
- Preemergence herbicidal rating CHEAL ([11]; rate 0.0313 kg/ha): 9.0
- Preemergence herbicidal rating CHEAL ([11]; rate 0.0625 kg/ha): 9.0
- Preemergence herbicidal rating CHEAL ([11]; rate 0.1250 kg/ha): 9.0
- Preemergence herbicidal rating CHEAL ([11]; rate 0.2500 kg/ha): 9.0
- Preemergence herbicidal rating IPOHE ([12]; rate 0.0313 kg/ha): 0.0
- Preemergence herbicidal rating IPOHE ([12]; rate 0.0625 kg/ha): 0.0
- Preemergence herbicidal rating IPOHE ([12]; rate 0.1250 kg/ha): 0.0
- Preemergence herbicidal rating IPOHE ([12]; rate 0.2500 kg/ha): 1.0
- Preemergence herbicidal rating GLXMAW ([13]; rate 0.0313 kg/ha): 0.0
- Preemergence herbicidal rating GLXMAW ([13]; rate 0.0625 kg/ha): 0.0
- Preemergence herbicidal rating GLXMAW ([13]; rate 0.1250 kg/ha): 0.0
- Preemergence herbicidal rating GLXMAW ([13]; rate 0.2500 kg/ha): 0.0
- Preemergence herbicidal rating ORYSAT ([14]; rate 0.0313 kg/ha): 0.0
- Preemergence herbicidal rating ORYSAT ([14]; rate 0.0625 kg/ha): 0.0
- Preemergence herbicidal rating ORYSAT ([14]; rate 0.1250 kg/ha): 0.0
- Preemergence herbicidal rating ORYSAT ([14]; rate 0.2500 kg/ha): 0.0
- herbicidal effect rating, MOOVA ([15]; 0.0313 kg/ha): 3.0
- herbicidal effect rating, MOOVA ([15]; 0.0625 kg/ha): 4.0
- herbicidal effect rating, MOOVA ([15]; 0.1250 kg/ha): 4.0
- herbicidal effect rating, MOOVA ([15]; 0.2500 kg/ha): 6.0
- herbicidal effect rating, SAGPY ([16]; 0.0313 kg/ha): 0.0
- herbicidal effect rating, SAGPY ([16]; 0.0625 kg/ha): 3.0
- herbicidal effect rating, SAGPY ([16]; 0.1250 kg/ha): 3.0
- herbicidal effect rating, SAGPY ([16]; 0.2500 kg/ha): 3.0
